These results are taken from US20120315654A1, “COMPOSITIONS AND METHODS FOR DETECTING CARDIOTOXICITY” (DUKE UNIVERSITY, priority 2011, published 2012).

One series deals with T1, Cr transporter (CrT) (Rattus norvegicus, UniProt P28570).
T1 construct: measuring ^14C—Cr uptake in primary RNCMs; endogenous in cells; host or cells: primary rat neonatal cardiomyocytes (RNCM)
T1 sequence (P28570 1-635): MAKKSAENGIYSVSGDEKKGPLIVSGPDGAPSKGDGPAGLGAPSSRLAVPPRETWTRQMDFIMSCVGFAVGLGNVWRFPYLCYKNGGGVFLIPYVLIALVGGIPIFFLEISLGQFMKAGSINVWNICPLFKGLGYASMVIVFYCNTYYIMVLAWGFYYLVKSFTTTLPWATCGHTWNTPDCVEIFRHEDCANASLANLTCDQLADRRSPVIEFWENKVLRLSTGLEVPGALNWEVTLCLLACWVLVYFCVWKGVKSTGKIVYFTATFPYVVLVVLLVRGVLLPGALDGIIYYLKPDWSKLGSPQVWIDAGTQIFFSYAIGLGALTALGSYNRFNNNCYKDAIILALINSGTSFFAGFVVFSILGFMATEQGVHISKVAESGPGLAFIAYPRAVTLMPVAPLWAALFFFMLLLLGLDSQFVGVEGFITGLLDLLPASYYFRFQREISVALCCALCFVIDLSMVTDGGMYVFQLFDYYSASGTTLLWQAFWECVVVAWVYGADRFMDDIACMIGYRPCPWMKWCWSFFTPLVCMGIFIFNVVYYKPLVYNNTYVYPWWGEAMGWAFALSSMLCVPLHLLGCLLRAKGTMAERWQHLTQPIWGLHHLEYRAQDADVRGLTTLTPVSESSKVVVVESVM
Kind of series: 14C-Cr transport in rat neonatal cardiomyocytes (RNCM) after DOX incubation. The series is classed as cell-based. Particulars: 100 nmol/L DOX. The procedure:
Cells were plated on tissue culture dishes pre-coated with gelatin/fibronectin and allowed to grow in M199 media (INVITROGEN, Carlsbad, Calif.) containing 2% serum before experimentation. All animals were treated according to protocols approved by Duke University's Institutional Animal Care and Use Committee. HL-1 cells (passages 50 to 75), were plated onto fibronectin/gelatin-coated plates and cultured in CLAYCOMB media (SIGMA, St. Louis, Mo.) supplemented with 10% fetal bovine serum, 100 units/ml penicillin, 100 μg/ml streptomycin, 0.1 mM norepinephrine, and 2 mmol/L L-glutamine, as described previously (White S. M., et al., Am J Physiol Heart Circ Physiol 286: H823-829, 2004). The cultures were maintained in a humidified atmosphere of 5% CO2 at 37° C.
Cr transport assays were performed after growth in control media for 0, 4, 12, 24 or 48 hrs.
Cells used for Cr transport assays were cultured in 24-well plates coated with fibronectin and gelatin. […]
For assays that measured Cr transport kinetics, the final Cr content in the uptake buffer ranged from 5 to 305 μmol/L. Uptake was terminated by aspiration of the radiolabeled solution, followed by 3 washes with ice-cold choline buffer. […] Cr transport was normalized to the protein concentration measured using the bicinchoninic acid (BCA) protein assay (PIERCE BIOTECHNOLOGY, Rockford, Ill.). […]

In another series the test system is HL-1 cells. Kind of series: Caspase 3/7 apoptosis assay in HL-1 cells. The series is classed as cell-based, murine. Particulars: HL-1, 100 nmol/L DOX, up to 48 hrs. The procedure:
Apoptosis was measured using PROMEGA's CASPASE-GLO 3/7 ASSAY SYSTEM (PROMEGA). Briefly, attached cells in a single 24-well plate were washed 3 times with ice-cold PBS and resuspended in 500 μl of 1% TRITON-X100; 10% glycerol; 2 mmol/L EDTA; 137 mmol/L NaCl; and 20 mmol/L Tris, pH 8.0. A mixture of 25 μL of lysate and 25 μL of caspase 3/7-assay reagent was prepared, and sequential luminescent readings were taken every 15 min for 4 hrs. Peak signal readings were normalized to protein content and plotted.

Another series concerns RNCM. Kind of series: LDH release cytotoxicity assay in RNCM. The series is classed as cell-based, rat. As for the experimental part: Toxicity was assessed by quantifying the amount of lactate dehydrogenase (LDH) present in the culture media using PROMEGA's CYTOTOX96 NON-RADIOACTIVE ASSAY (PROMEGA, Madison, Wis.). Maximum cytotoxicity was determined by measuring the amount of LDH released in cells incubated with the kit's lysis buffer. The percentage of LDH released after DOX treatment was compared with that of controls.
Background: LDH leaks from cells whose membrane has failed.

The conditions of series [1]: cited from earlier work.

On to `COc1cccc2c1C(=O)c1c(O)c3c(c(O)c1C2=O)C[C@@](O)(C(=O)CO)C[C@@H]3O[C@H]1C[C@H](N)[C@H](O)[C@H](C)O1` [DOX, Doxorubicin], for which, at Cr transporter (CrT) (32 hrs before the 36 hrs point (FIG. 1A)), the “Decrease in Cr uptake” value came out at 37%. Besides, the “Cr transport (14C-Cr uptake)” value on Cr transporter (CrT) (within 2-4 hrs of exposure, vs control media) is given as “decreased significantly”. Further, the “Apoptosis (caspase 3/7 activation)” value in the series with HL-1 cells is given as “No increase”. Further, the LDH release entry in the series with RNCM (50 nmol/L DOX, through 48 hrs) was “not significantly elevated”. The “Increase in LDH release compared with control” value with RNCM (100 nmol/L DOX, 36 hrs) is 7%. Also, in series [1], the “Average steady-state concentration typically measured in patient plasma” value is listed as 100 nmol/L.
